Some results are limits rather than exact numbers.

T1 sequence (P33032 whole entry): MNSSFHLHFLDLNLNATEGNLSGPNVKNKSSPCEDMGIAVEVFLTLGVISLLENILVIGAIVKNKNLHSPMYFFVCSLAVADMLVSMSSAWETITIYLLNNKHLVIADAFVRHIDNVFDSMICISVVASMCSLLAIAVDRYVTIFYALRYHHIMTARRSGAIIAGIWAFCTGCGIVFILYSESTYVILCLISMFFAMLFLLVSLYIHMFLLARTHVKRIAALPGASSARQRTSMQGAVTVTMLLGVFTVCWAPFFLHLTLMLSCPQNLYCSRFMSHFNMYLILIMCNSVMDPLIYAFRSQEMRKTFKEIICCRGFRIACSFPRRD

The first assay has as its target T1, human MC5R (Homo sapiens, UniProt P33032).
T1 construct: purchased Perkin Elmer RBXMC5M400UA
Put plainly: Human MC5R radioligand binding assay ([125I] NDP-MSH displacement, hMC5R membranes).
Settings: not given
As for the experimental part: After incubation for 10 mins the phosphate buffer containing the iodine was added to NDP-MSH (10 ul at 1 mg/mL) in a separate eppendorf tube. This was incubated for a further 10 mins.
Resuspended membranes were kept on ice until they were added to the wells of the plate.
Assays were performed in 96 well polypropylene plates. […] This was incubated for 1 hr at 37 °C. Non-specific binding was determined with […] NDP-MSH. Plates were filtered using a Tomtec cell harvester with GF/A filters (Wallac) (presoaked in 0.6% polyethylenimine) and washed three times with 1.0 mL ice-cold wash buffer (the above incubation buffer without 1,10-phenanthroline and Complete™ protease inhibitor tablet). The filters were dried in a 37 °C oven, placed in a sample bag and 5 mL Betaplatescint (Wallac) was added. Prepared filters were counted in cassettes in a Microbeta Trilux (Wallac) for 1 min. […] Data analysis was performed using GraphPad Prism 4, employing competition binding with a single site model and a fixed Hill coefficient. The following equation was used: Y = Bottom + (Top-Bottom)/1/10^(X-logEC50), where X = log(concentration) and Y = binding to fit the data.
In general, IC50 refers to the midpoint of a concentration-inhibition curve. Turning to `CC[C@@H](CN1CC[C@@H](CNC(=O)c2ccc(Cl)c(Cl)c2)N[C@@H](CCN)C1=O)C(C)C` (racemic) [Compound 489, N-(((3S,5S)-3-(2-aminoethyl)-1-((R)-2-ethyl-3-methylbutyl)-2-oxo-1,4-diazepan-5-yl)methyl)-3,4-dichlorobenzamide], the IC50 is under 10000 nM.
Still for that read-out and setting: next, `CC[C@H](CN1CC[C@@H](CNC(=O)c2ccc(Cl)c(Cl)c2)N[C@@H](CCN)C1=O)C(C)C` (racemic) [Compound 490, N-(((3S,5S)-3-(2-aminoethyl)-1-((S)-2-ethyl-3-methylbutyl)-2-oxo-1,4-diazepan-5-yl)methyl)-3,4-dichlorobenzamide]: under 10000 nM; `CC[C@H](CN1CC[C@@H](CNC(=O)c2ccc3cc(Cl)ccc3c2)N[C@@H](CC(C)(C)N2CCCCC2)C1=O)c1ccccc1` (racemic) [Compound 499, 6-chloro-N-(((3S,5S)-3-(2-methyl-2-(piperidin-1-yl)propyl)-2-oxo-1-((S)-2-phenylbutyl)-1,4-diazepan-5-yl)methyl)-2-naphthamide]: under 100 nM.
Same read-out and setting: next, `CC[C@H](CN1CC[C@H](CNC(=O)c2ccc3cc(Cl)ccc3c2)N[C@H](CC(C)(C)N2CCCCC2)C1=O)c1ccccc1` (racemic) [Compound 500, 6-chloro-N-(((3R,5R)-3-(2-methyl-2-(piperidin-1-yl)propyl)-2-oxo-1-((S)-2-phenylbutyl)-1,4-diazepan-5-yl)methyl)-2-naphthamide]: under 100 nM; `CCC(CN1CCC(CNC(=O)c2ccc3cc(Cl)ccc3c2)N[C@@H](C2CCN(C(C)C)CC2)C1=O)c1ccccc1` (mixture of isomers) [Compound 564, (S)-6-chloro-N-((3-(1-isopropylpiperidin-4-yl)-2-oxo-1-(2-phenylbutyl)-1,4-diazepan-5-yl)methyl)-2-naphthamide]: under 100 nM.

The assay is the same for the next values; noted with them: hMC5R assay as in Example 102; compounds tested as trifluoroacetate or hydrochloride salts, or as free base.
With `CCC(CN1CC[C@@H](CNC(=O)c2ccc3ccccc3c2)N[C@@H](CCN)C1=O)c1ccccc1` (mixture of isomers) [Compound 37, (3S,5S)-3-(2-aminoethyl)-5-(N-2-naphthamidomethyl)-1-(2-phenylbutyl)-1,4-diazepan-2-one], the 50% inhibitory concentration (IC50) was under 100 nM.
Same read-out and setting: next, `CCN(CC)CC[C@@H]1N[C@H](CNC(=O)c2ccc3cc(F)ccc3c2)CCN(CC(c2ccccc2)c2ccccc2)C1=O` [Compound 25, N-(((3S,5S)-3-(2-(diethylamino)ethyl)-1-(2,2-diphenylethyl)-2-oxo-1,4-diazepan-5-yl)methyl)-6-fluoro-2-naphthamide]: under 100 nM; `NCC[C@@H]1N[C@H](CNC(=O)c2ccc3cc(F)ccc3c2)CCN(CC(c2ccccc2)c2ccccc2)C1=O` [Compound 31, N-(((3S,5S)-3-(2-aminoethyl)-1-(2,2-diphenylethyl)-2-oxo-1,4-diazepan-5-yl)methyl)-6-fluoro-2-naphthamide]: under 1000 nM.
Same read-out and setting: next, `NCC[C@@H]1N[C@H](CNC(=O)c2ccc3ccccc3c2)CCN(Cc2cc(Cl)cc(Cl)c2)C1=O` [Compound 49, (3S,5S)-3-(2-aminoethyl)-5-(2-naphthoylaminomethyl)-1-(3,5-dichlorobenzyl)-1,4-diazepan-2-one]: under 1000 nM; `N=C(N)NCCC[C@@H]1N[C@H](CNS(=O)(=O)c2ccc3ccccc3c2)CCN(CC(c2ccccc2)c2ccccc2)C1=O` [Compound 50, N-(((3S,5S)-1-(2,2-diphenylethyl)-3-(3-guanidinopropyl)-2-oxo-1,4-diazepan-5-yl)methyl)-2-naphthalene-2-sulfonamide]: under 10000 nM.
On the same count and under the same terms, next, `CCC(CC)CN1CC[C@@H](CNC(=O)c2ccc3ccccc3c2)N[C@@H](CCN)C1=O` [Compound 54, N-(((3S,5S)-3-(2-aminoethyl)-1-(2-ethylbutyl)-2-oxo-1,4-diazepan-5-yl)methyl)-2-naphthamide]: under 1000 nM; `CN(C[C@@H]1CCN(CC(c2ccccc2)c2ccccc2)C(=O)[C@H](CCCN)N1)C(=O)c1ccc2cc(Br)ccc2c1` [Compound 60, N-(((3S,5S)-3-(3-aminopropyl)-1-(2,2-diphenylethyl)-2-oxo-1,4-diazepan-5-yl)methyl)-6-bromo-N-methyl-2-naphthamide]: under 10000 nM.

The values above are taken from patent publication EP2257297B1, “COMPOUNDS FOR USE IN THE TREATMENT OF ACNE, SEBORRHOEA AND SEBHORROEIC DERMATITIS, OR FOR REDUCING SEBUM SECRETION” (priority 2008, dated 2009).
